{"source": "patent US20040223963A1", "about": "“Method for treating ischemic stroke with melatonin” (priority 2003, published 2004)", "key": {"ischemic stroke": {"system": "ischemic stroke", "details": "cited from earlier work"}, "[1]": {"system": "adult Sprague-Dawley rats", "assay": "endovascular middle cerebral artery occlusion (MCAO) stroke models, permanent and 3-hour", "type": "in vivo, rat", "source_text": "The laboratory observations in support of the disclosed invention include experiments with rats. In experimental studies, the control groups of animal received identical handling plus an intraperitoneal injection of the vehicle alone (i.e. without melatonin)."}, "women": {"system": "women", "details": "oral, about 300 mg daily for about 4 months; cited from earlier work"}, "[2]": {"details": "clinical trials on neuroprotection against ischemic stroke"}, "[3]": {"details": "second and third doses added at 24 and 48 hours of ischemia"}}, "note": "“Also recorded” adds a separate entry of the source. Where two headings read alike, the source gives them in different places.", "data": [{"molecule": "O=C(O)[C@@H]1C[C@H](CP(=O)(O)O)CCN1", "note": "(racemic) [Selfotel]", "values": [{"measurement": "Results (adverse effects)", "setting": "ischemic stroke; [2]", "value": "Trial stopped, adverse effects"}]}, {"molecule": "CCc1cccc(N(C)C(N)=Nc2cccc3ccccc23)c1", "note": "[Aptiganel]", "values": [{"measurement": "Results (adverse effects)", "setting": "ischemic stroke; [2]", "value": "Trial stopped, adverse effects"}]}, {"molecule": "COc1ccc(Cl)cc1[C@]1(F)C(=O)Nc2cc(C(F)(F)F)ccc21", "note": "[BMS-204352]", "values": [{"measurement": "Results (efficacy)", "setting": "ischemic stroke; [2]", "value": "No efficacy"}]}, {"molecule": "CN1CC[C@@]23CCCC[C@@H]2[C@@H]1Cc1ccc(O)cc13", "note": "[Dextrorfan]", "values": [{"measurement": "Results (adverse effects)", "setting": "ischemic stroke; [2]", "value": "Trial stopped, adverse effects"}]}, {"molecule": "C[C@]12N[C@H](Cc3ccccc31)c1ccccc12", "note": "[Dizolcipine]", "values": [{"measurement": "Results (adverse effects)", "setting": "ischemic stroke; [2]", "value": "Trial stopped, adverse effects"}]}, {"molecule": "OC(CN1CCC(Cc2ccc(F)cc2)CC1)c1ccc(Cl)cc1", "note": "(centres unmarked) [Eliprodil]", "values": [{"measurement": "Results (efficacy)", "setting": "ischemic stroke; [2]", "value": "No efficacy"}]}, {"molecule": "Fc1ccc(C(c2ccc(F)cc2)N2CCN(C/C=C/c3ccccc3)CC2)cc1", "note": "[Flunarizine]", "values": [{"measurement": "Results (efficacy)", "setting": "ischemic stroke; [2]", "value": "No efficacy"}]}, {"molecule": "O=C1NC(c2ccccc2)(c2ccccc2)C(=O)N1COP(=O)(O)O", "note": "[Fosphenytoin]", "values": [{"measurement": "Results (efficacy)", "setting": "ischemic stroke; [2]", "value": "No efficacy"}]}, {"molecule": "O=C(/C=C/c1c(C(=O)O)[nH]c2cc(Cl)cc(Cl)c12)Nc1ccccc1", "note": "[GV150526]", "values": [{"measurement": "Results (efficacy)", "setting": "ischemic stroke; [2]", "value": "No efficacy"}]}, {"molecule": "COC(=O)C1=C(C)NC(C)=C(C(=O)OC(C)C)C1c1cccc2nonc12", "note": "(centres unmarked) [Isradipine]", "values": [{"measurement": "Results (efficacy)", "setting": "ischemic stroke; [2]", "value": "No efficacy"}]}, {"molecule": "CN(c1nc2ccccc2s1)C1CCN(C[C@H](O)COc2ccc(F)c(F)c2)CC1", "note": "[Lubeluzole]", "values": [{"measurement": "Results (efficacy)", "setting": "ischemic stroke; [2]", "value": "No efficacy"}]}, {"molecule": "NS(=O)(=O)c1cccc2c1c([N+](=O)[O-])cc1nc(O)c(O)nc12", "note": "[NBQX]", "values": [{"measurement": "Results (adverse effects)", "setting": "ischemic stroke; in vivo", "value": "Trial stopped, adverse effects"}]}, {"molecule": "C=C1CC[C@@]2(O)[C@H]3Cc4ccc(O)c5c4[C@@]2(CCN3CC2CC2)[C@H]1O5", "note": "[Nalmefene]", "values": [{"measurement": "Results (efficacy)", "setting": "ischemic stroke; [2]", "value": "No efficacy"}]}, {"molecule": "NC(=O)CN1CCCC1=O", "note": "[Piracetam]", "values": [{"measurement": "Results (efficacy)", "setting": "ischemic stroke; [2]", "value": "No overall efficacy,"}]}, {"molecule": "CCCn1cnc2c1c(=O)n(CCCCC(C)=O)c(=O)n2C", "note": "[Propentophylline]", "values": [{"measurement": "Results (adverse effects)", "setting": "ischemic stroke; [2]", "value": "Trial stopped, adverse effects"}]}, {"molecule": "C[C@@H]1C[C@H]2[C@@H]3CCC4=CC(=O)C=C[C@]4(C)C3=CC[C@]2(C)[C@H]1C(=O)CN1CCN(c2cc(N3CCCC3)nc(N3CCCC3)n2)CC1", "note": "[Tirilazad]", "values": [{"measurement": "Results (efficacy)", "setting": "ischemic stroke; [2]", "value": "No efficacy"}]}, {"molecule": "COc1ccc2[nH]cc(CCNC(C)=O)c2c1", "note": "[melatonin]", "values": [{"measurement": "efficacy at high dose", "setting": "[1]; 50 mg/kg", "value": "effective"}, {"measurement": "harmful effects", "setting": "[1]; doses up to about 50 mg/kg", "value": "can be administered safely; also recorded: no evidence of producing any harmful effects"}, {"measurement": "reduction of infarct volume", "setting": "[1]; pre-treatment, single i.p. injection, about 5 to about 15 mg/kg, at about 72 hours, permanent and 3-hour MCAO", "value": "about 40%"}, {"measurement": "effect on systemic hemodynamic parameters and regional cerebral blood flow", "setting": "[1]; pre-treatment, single i.p. injection, about 5 to about 15 mg/kg, permanent and 3-hour MCAO", "value": "without affecting"}, {"measurement": "infarct volume with additional doses", "setting": "[1]; [3]", "value": "tended to achieve increased reduction in infarct volume"}, {"measurement": "treatment time window", "setting": "[1]; [3]", "value": "failed to extend the treatment time window beyond about 3 hours"}, {"measurement": "efficacy of treatment after onset of ischemia", "setting": "[1]; single injection about 5 mg/kg commenced at 1 hour or less after onset of ischemia, 3-hour MCAO", "value": "effective"}, {"measurement": "effect on ovulation", "setting": "women", "value": "inhibit ovulation"}, {"measurement": "side effects", "setting": "women", "value": "without significant side effects"}]}, {"molecule": "bFGF: Neurotrophic factor", "values": [{"measurement": "Results (adverse effects)", "setting": "ischemic stroke; in vivo", "value": "Trial stopped, adverse effects"}]}]}
